In ChEMBL document CHEMBL1201862, “PubChem BioAssay data set” (2004):
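Exposure lasted 48 hours, with cells grown in 96-well plates and compounds tested at five concentrations. The concentration for 50% growth inhibition is given as GI50.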 The source made the active and inactive calls. Cut-off read from the data, not from the text of the source: active = GI50 up to about 1.1 µM and inactive = higher.

How the values were obtained:
Assay in all cases: NCI-60 cell line screen, 48 h
HL-60 = tested on: HL-60
SK-MEL-28 = tested on: SK-MEL-28
MOLT-4 = tested on: MOLT-4
HOP-18 = tested on: HOP-18
CAKI-1 = tested on: CAKI-1
K562 = tested on: K562
EKVX = tested on: EKVX
UO-31 = tested on: UO-31
HCT-116 = tested on: HCT-116
SF-295 = tested on: SF-295
SN12C = tested on: SN12C
LXFL 529 = tested on: LXFL 529
UACC-62 = tested on: UACC-62
NCI-H226 = tested on: NCI-H226
U-251 = tested on: U-251
786-0 = tested on: 786-0
SNB-19 = tested on: SNB-19
OVCAR-3 = tested on: OVCAR-3
M14 = tested on: M14
DMS-114 = tested on: DMS-114
SW-620 = tested on: SW-620
SNB-78 = tested on: SNB-78
NCI-H23 = tested on: NCI-H23
NCI-H522 = tested on: NCI-H522
XF498 = tested on: XF498
OVCAR-4 = tested on: OVCAR-4
OVCAR-8 = tested on: OVCAR-8
RPMI-8226 = tested on: RPMI-8226
HCC 2998 = tested on: HCC 2998
COLO 205 = tested on: COLO 205
M19-MEL = tested on: M19-MEL
HT-29 = tested on: HT-29
DLD-1 = tested on: DLD-1
ACHN = tested on: ACHN
CCRF-CEM = tested on: CCRF-CEM
IGROV-1 = tested on: IGROV-1
KM-20L2 = tested on: KM-20L2
SF-268 = tested on: SF-268
SNB-75 = tested on: SNB-75
HCT-15 = tested on: HCT-15
HOP-62 = tested on: HOP-62
DMS-273 = tested on: DMS-273
NCI-H460 = tested on: NCI-H460
LOX IMVI = tested on: LOX IMVI
RXF 393 = tested on: RXF 393
TK-10 = tested on: TK-10
SK-MEL-2 = tested on: SK-MEL-2
Malme-3M = tested on: Malme-3M
OVCAR-5 = tested on: OVCAR-5
SK-OV-3 = tested on: SK-OV-3
A549 = tested on: A549
UACC-257 = tested on: UACC-257
SR = tested on: SR
HOP-92 = tested on: HOP-92
KM12 = tested on: KM12
SK-MEL-5 = tested on: SK-MEL-5
A498 = tested on: A498
SF-539 = tested on: SF-539

O=C(Cc1ccccc1)NN1C(=O)C(Cl)C1c1cccc(O)c1 (stereo unspecified)
GI50 (HL-60): 11.8 µM (inactive) | GI50 (SK-MEL-28): 18.4 µM (inactive) | GI50 (MOLT-4): 7.69 µM (inactive) | GI50 (HOP-18): 20.6 µM (inactive) | GI50 (CAKI-1): 17.9 µM (inactive) | GI50 (K562): 6.27 µM (inactive) | GI50 (EKVX): 18.6 µM (inactive) | GI50 (UO-31): 15.9 µM (inactive) | GI50 (HCT-116): 13.6 µM (inactive) | GI50 (SF-295): 16.7 µM (inactive) | GI50 (SN12C): 18.5 µM (inactive) | GI50 (LXFL 529): 10.6 µM (inactive) | GI50 (UACC-62): > 10 µM (inactive) | GI50 (NCI-H226): 21.7 µM (inactive) | GI50 (U-251): 11.9 µM (inactive) | GI50 (786-0): 13.2 µM (inactive) | GI50 (SNB-19): 42.7 µM (inactive) | GI50 (OVCAR-3): 14.6 µM (inactive) | GI50 (M14): 15.3 µM (inactive) | GI50 (DMS-114): 13.8 µM (inactive) | GI50 (SW-620): 5.2 µM (inactive) | GI50 (SNB-78): 15.8 µM (inactive) | GI50 (NCI-H23): 17.5 µM (inactive) | GI50 (NCI-H522): 9.23 µM (inactive) | GI50 (XF498): 20.1 µM (inactive) | GI50 (OVCAR-4): 17.7 µM (inactive) | GI50 (OVCAR-8): 14 µM (inactive) | GI50 (RPMI-8226): 2.84 µM (inactive) | GI50 (HCC 2998): 20.2 µM (inactive) | GI50 (COLO 205): 18.4 µM (inactive) | GI50 (M19-MEL): 18 µM (inactive) | GI50 (HT-29): 16.7 µM (inactive) | GI50 (DLD-1): 14.8 µM (inactive) | GI50 (ACHN): 16.4 µM (inactive) | GI50 (CCRF-CEM): 3.06 µM (inactive) | GI50 (IGROV-1): 17.2 µM (inactive) | GI50 (KM-20L2): 15.1 µM (inactive) | GI50 (SF-268): 21.1 µM (inactive) | GI50 (SNB-75): 26.5 µM (inactive) | GI50 (HCT-15): 18.7 µM | GI50 (HOP-62): 27.2 µM (inactive) | GI50 (DMS-273): 16.1 µM (inactive) | GI50 (NCI-H460): 15.3 µM (inactive) | GI50 (LOX IMVI): 13.5 µM (inactive) | GI50 (RXF 393): 18 µM (inactive) | GI50 (TK-10): 18.9 µM (inactive) | GI50 (SK-MEL-2): 27 µM (inactive) | GI50 (Malme-3M): 31.6 µM (inactive) | GI50 (OVCAR-5): 14.4 µM (inactive) | GI50 (SK-OV-3): 28.2 µM (inactive) | GI50 (A549): 25.1 µM (inactive) | GI50 (UACC-257): 18.2 µM (inactive) | GI50 (SR): 3.58 µM (inactive)

c1ccc(COc2ccc3[nH]c4c5c6ccccc6nc-5c[nH]c4c3c2)cc1
GI50 (HL-60): 2.19 µM (inactive) | GI50 (SK-MEL-28): 17.2 µM (inactive) | GI50 (MOLT-4): 7.62 µM (inactive) | GI50 (HOP-18): 13.2 µM (inactive) | GI50 (CAKI-1): 22 µM (inactive) | GI50 (K562): 2.48 µM (inactive) | GI50 (EKVX): 17.7 µM (inactive) | GI50 (UO-31): 18.7 µM (inactive) | GI50 (HCT-116): 12.2 µM (inactive) | GI50 (SF-295): 14.8 µM (inactive) | GI50 (SN12C): 15.4 µM (inactive) | GI50 (LXFL 529): 16 µM (inactive) | GI50 (HOP-92): 15.8 µM (inactive) | GI50 (UACC-62): 19.6 µM (inactive) | GI50 (NCI-H226): 15.4 µM (inactive) | GI50 (U-251): 11.7 µM (inactive) | GI50 (786-0): 6.46 µM (inactive) | GI50 (SNB-19): 17.7 µM (inactive) | GI50 (OVCAR-3): 15.9 µM (inactive) | GI50 (M14): 13.7 µM (inactive) | GI50 (DMS-114): 16.6 µM (inactive) | GI50 (SW-620): 17.3 µM (inactive) | GI50 (SNB-78): 20.9 µM (inactive) | GI50 (NCI-H23): 18.3 µM (inactive) | GI50 (KM12): 14.7 µM (inactive) | GI50 (NCI-H522): 16.7 µM (inactive) | GI50 (XF498): 13.7 µM (inactive) | GI50 (OVCAR-8): 17.5 µM (inactive) | GI50 (RPMI-8226): 2.97 µM (inactive) | GI50 (HCC 2998): 10.5 µM (inactive) | GI50 (COLO 205): 19 µM (inactive) | GI50 (HT-29): 5.47 µM (inactive) | GI50 (SK-MEL-5): 15.7 µM (inactive) | GI50 (DLD-1): 12.4 µM (inactive) | GI50 (ACHN): 17.5 µM (inactive) | GI50 (CCRF-CEM): 11.4 µM (inactive) | GI50 (IGROV-1): 13.8 µM (inactive) | GI50 (A498): 21.6 µM (inactive) | GI50 (KM-20L2): 8.02 µM (inactive) | GI50 (SF-539): 15.7 µM (inactive) | GI50 (SF-268): 17 µM (inactive) | GI50 (SNB-75): 12.7 µM (inactive) | GI50 (HCT-15): 4.3 µM | GI50 (HOP-62): 15.8 µM (inactive) | GI50 (DMS-273): 16.6 µM (inactive) | GI50 (NCI-H460): 18.6 µM (inactive) | GI50 (LOX IMVI): 18.7 µM (inactive) | GI50 (RXF 393): 11.2 µM (inactive) | GI50 (TK-10): 21.9 µM (inactive) | GI50 (SK-MEL-2): 16.9 µM (inactive) | GI50 (Malme-3M): 13.5 µM (inactive) | GI50 (OVCAR-5): 19.4 µM (inactive) | GI50 (SK-OV-3): 18.4 µM (inactive) | GI50 (A549): 17.8 µM (inactive) | GI50 (UACC-257): 18 µM (inactive) | GI50 (SR): 8.95 µM (inactive)

COC(=O)C(/C(=N/NC(N)=O)C(=O)Nc1c(C)cccc1C(C)(C)C)c1nc2ccc(Cl)cc2nc1O (stereo unspecified)
GI50 (HL-60): > 100 µM (inactive) | GI50 (SK-MEL-28): > 100 µM (inactive) | GI50 (MOLT-4): > 100 µM (inactive) | GI50 (HOP-18): > 100 µM (inactive) | GI50 (CAKI-1): > 100 µM (inactive) | GI50 (K562): > 100 µM (inactive) | GI50 (EKVX): 75.5 µM (inactive) | GI50 (UO-31): > 100 µM (inactive) | GI50 (HCT-116): > 100 µM (inactive) | GI50 (SF-295): > 100 µM (inactive) | GI50 (SN12C): > 100 µM (inactive) | GI50 (LXFL 529): > 100 µM (inactive) | GI50 (HOP-92): > 100 µM (inactive) | GI50 (UACC-62): > 100 µM (inactive) | GI50 (NCI-H226): > 100 µM (inactive) | GI50 (U-251): > 100 µM (inactive) | GI50 (786-0): > 100 µM (inactive) | GI50 (SNB-19): > 100 µM (inactive) | GI50 (OVCAR-3): > 100 µM (inactive) | GI50 (M14): > 100 µM (inactive) | GI50 (DMS-114): > 100 µM (inactive) | GI50 (SW-620): > 100 µM (inactive) | GI50 (SNB-78): > 100 µM (inactive) | GI50 (NCI-H23): > 100 µM (inactive) | GI50 (KM12): > 100 µM (inactive) | GI50 (NCI-H522): > 100 µM (inactive) | GI50 (XF498): > 100 µM (inactive) | GI50 (OVCAR-4): > 100 µM (inactive) | GI50 (OVCAR-8): > 100 µM (inactive) | GI50 (RPMI-8226): > 100 µM (inactive) | GI50 (HCC 2998): > 100 µM (inactive) | GI50 (M19-MEL): > 100 µM (inactive) | GI50 (HT-29): > 100 µM (inactive) | GI50 (SK-MEL-5): > 100 µM (inactive) | GI50 (DLD-1): > 100 µM (inactive) | GI50 (ACHN): > 100 µM (inactive) | GI50 (CCRF-CEM): > 100 µM (inactive) | GI50 (IGROV-1): > 100 µM (inactive) | GI50 (A498): > 100 µM (inactive) | GI50 (KM-20L2): > 100 µM (inactive) | GI50 (SF-539): > 100 µM (inactive) | GI50 (SF-268): > 100 µM (inactive) | GI50 (SNB-75): > 100 µM (inactive) | GI50 (HCT-15): > 100 µM | GI50 (HOP-62): > 100 µM (inactive) | GI50 (DMS-273): > 100 µM (inactive) | GI50 (NCI-H460): > 100 µM (inactive) | GI50 (LOX IMVI): > 100 µM (inactive) | GI50 (RXF 393): > 100 µM (inactive) | GI50 (TK-10): > 100 µM (inactive) | GI50 (SK-MEL-2): > 100 µM (inactive) | GI50 (Malme-3M): > 100 µM (inactive) | GI50 (OVCAR-5): > 100 µM (inactive) | GI50 (SK-OV-3): > 100 µM (inactive) | GI50 (A549): > 100 µM (inactive) | GI50 (UACC-257): > 100 µM (inactive) | GI50 (SR): 37.5 µM (inactive)
